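Test compounds were applied to cells in 96-well plates for 48 hours at 5 doses. The concentration for 50% growth inhibition is given as GI50. TGI marks complete inhibition of growth.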

Assay in all cases: NCI tumour cell line growth inhibition, 48 h
The test system of test [1] is DMS 114 small cell lung.
The subject of test [2] is XF 498 CNS.
In test [3] the test system is MDA-MB-435.
Test [4] deals with MDA-N.
Test [5] has as its system HOP-18 NSCLC.
The test system of test [6] is RXF-631 renal.

For the compound `O=C(N/C(=C\c1ccc([N+](=O)[O-])cc1)c1nc2ccc(Cl)cc2[nH]1)c1ccccc1`, the TGI is over 100 µM in test [1] and 46.5 µM in test [2].

For the compound `O=C1/C(=C/c2ccccc2Br)COc2ccc(O)c(O)c21`, in test [3], the GI50 was 1.14 µM and the TGI stood at 4.91 µM.

In the case of `CCC(c1ccc(OC)cc1)C(CC)c1ccc(O)c(CN2CCCC2)c1` (configuration not stated), in test [3], the GI50 was 2.01 µM and the TGI is 4.76 µM.

Regarding `COc1cccc(-c2nc(-c3ccc(NC(=O)c4ccccc4)cc3)[nH]c2-c2ccnc(Br)c2)c1`, in test [3], the GI50 is 4.72 µM and the TGI was over 100 µM.

Take `N#Cc1ccc(-c2nc3ccc(Cl)cc3[nH]2)cc1`: the TGI in test [4] was over 100 µM.

As for `CC(C(=O)c1ccccc1)C1(O)C(=O)Nc2ccccc21` (configuration not stated), the TGI in test [1], in test [5] and in test [6] was over 100 µM in each case.

Regarding `O=S1c2ccccc2N=C(c2ccc(Cl)cc2)CC1c1cccs1` (configuration not stated), the TGI stood at 39.5 µM in test [1] and 71.1 µM in test [5].

On to `S=P(c1ccccc1)(c1ccccc1)C1(C2(P(=S)(c3ccccc3)c3ccccc3)CC2)CC1`, for which the TGI in test [1], in test [6] and in test [2] was over 100 µM throughout.

`CC(Oc1ccc(OCC2CCCCC2)cc1)C(=O)O` (configuration not stated): the TGI in test [1], in test [5] and in test [2] was over 100 µM in each case.

As for `C[C@]12CC(C#N)C(=O)C(O)=C1CC[C@@H]1C2CC[C@@]2(C)C1CC[C@@H]2O` (some centres not stated), the TGI in test [1] and in test [2] was over 100 µM throughout.

With `O=C1/C(=C/c2ccccc2)CN(CCC(=O)N2C/C(=C\c3ccccc3)C(=O)/C(=C/c3ccccc3)C2)C/C1=C\c1ccccc1`, in test [3], the GI50 was 0.683 µM and the TGI is 5.68 µM.

With `CCN(CC)CCOC(=O)/C(=C/c1ccc(OC)cc1)c1cc(OC)c(OC)c(OC)c1`, the values for the TGI in test [1], in test [5] and in test [6] were 22.2 µM, over 100 µM and over 100 µM, respectively.

Turning to `c1ccc2c(c1)nnn2CNc1ccc(N2CCOCC2)cc1`, the TGI in test [1], in test [5] and in test [2] was over 100 µM throughout.

With `C[C@@H](Oc1cc(NS(=O)(=O)N2CCC2)nc(SCc2cccc(F)c2F)n1)[C@@H](O)CO`, in test [3], the GI50 was over 100 µM and the TGI is over 100 µM.

With `NCCCn1c2c(c3cc4c(cc3c1=O)OCO4)C(=O)c1ccccc1-2`, in test [3], the GI50 is 0.567 µM and the TGI stood at 1.42 µM.

As to `CN(C1=NS(=O)(=O)N=C(N(C)c2ccccc2)O1)c1ccccc1`, the TGI is 30.4 µM in test [3] and 32.6 µM in test [4].

On to `CCOC(=O)C#Cc1ccc([N+](=O)[O-])cc1`, for which the TGI in test [3] worked out at 10.8 µM; in test [4], 10.5 µM.

On to `CCC1CCCCN1C(=S)N/N=C(\C)c1ccccn1` (configuration not stated), for which, in test [3], the GI50 is 0.127 µM and the TGI amounted to 1.79 µM.

As to `CN(C)CCCN=c1cc2c(=O)n(CCCN(C)C)c(=O)c3c(NCCCN(C)C)cc4c(O)n(CCCN(C)C)c(=O)c1c4c3-2`, in test [3], the GI50 is 3.41 µM and the TGI is 14.9 µM.

For `CCCC1C(=O)C(CC)Cc2c(OC)ccc(OC)c21` (configuration not stated), the TGI in test [6] and in test [2] was over 100 µM throughout.

As to `CC(=O)Nc1ccc2oc(=O)c3ccccc3c2c1`, the TGI in test [3] and in test [4] was over 100 µM each time.

As to `COc1cc2ccnc3c2c(c1OC)CC1CC(O)C(OC)CC31` (configuration not stated), the TGI in test [1], in test [5] and in test [2] was over 100 µM in each case.

On to `CC1Cc2c(N)nc(N3CCOCC3)nc2NC1=O` (configuration not stated), for which the TGI in test [1] and in test [5] was over 100 µM in each case.

Regarding `Cc1ccc2c(N/N=C\c3ccco3)cc(C)nc2n1`, in test [3], the GI50 is 2.63 µM and the TGI is 10.7 µM.

In test [2], `C=CCCC(C)N(C(=O)OC(C)(C)C)S(=O)(=O)c1ccc(C)cc1` (configuration not stated) yielded a TGI of over 100 µM.

Regarding `O=C1CCC2=C3C4CCCCC4C(=O)C4CCCC(OC2C1)C34` (configuration not stated), in test [3], the GI50 is 0.516 µM and the TGI came out at 2.08 µM.

Regarding `C/C(=N\NS(=O)(=O)c1ccc(C)cc1)c1c(O)cc(C)oc1=O`, the TGI in test [5] was over 100 µM.

Regarding `C#Cc1cccc(Nc2ncnc3ccc(-c4cnc(Cl)c(NS(C)(=O)=O)c4)cc23)c1`, in test [3], the GI50 is 0.383 µM and the TGI came to 2.34 µM.

As to `O=C(O[C@H]1CN[C@H](C#Cc2cc3ncnc(Nc4ccc(OCc5cccc(F)c5)c(Cl)c4)c3s2)C1)N1CCOCC1`, in test [3], the GI50 is 9.85 µM and the TGI was over 25 µM.

Regarding `O=C1CC2C(=O)C1C(C(=O)O)C2C(=O)O` (configuration not stated), the TGI in test [3] and in test [4] was over 100 µM throughout.

For `CC1OC(O[C@H]2/C=C/C=C/C=C/C=C/C=C/C=C/C=C/[C@H](C)[C@@H](O)[C@@H](C)[C@H](C)OC(=O)C[C@H](O)C[C@H](O)CC[C@@H](O)[C@H](O)C[C@H](O)C[C@]3(O)C[C@H](O)[C@@H](C(=O)O)[C@H](C2)O3)C(O)C(N)C1O` (some centres not stated), in test [3], the GI50 is 7.94 µM and the TGI amounted to 19.3 µM. For the same compound, the TGI in test [4] was determined as 24.4 µM.

In the case of `CCOC(=O)CNC1C(NC(C)=O)C(OC)OC2COC(c3ccccc3)OC21` (configuration not stated), the TGI in test [1], in test [5] and in test [6] was over 100 µM in each case.

For the compound `CN(C)c1ccc2cc(-c3cc4c(oc3=O)-c3ccccc3OC4O)c(=O)oc2c1` (configuration not stated), in test [3], the GI50 is 3.67 µM and the TGI is 15.9 µM.

Compound `CCCCCCCC(=O)OCC1OC(n2cc(F)c(=O)[nH]c2=O)C(NC(=O)OCc2ccccc2)C(OC(=O)CCCCCCC)C1O` (configuration not stated) came in with a TGI in test [1] of over 100 µM.

Regarding `CCOC(=O)/C(C#N)=C\C=C1/C=CNC2=NCCN21`, the TGI in test [1], in test [5] and in test [2] was over 100 µM throughout.

Consider `N#Cc1nn(C2OC(COC(=O)c3ccccc3)C(OC(=O)c3ccccc3)C2OC(=O)c2ccccc2)c2nc[nH]c(=O)c12` (configuration not stated), for which the TGI in test [3] and in test [4] was over 100 µM in each case.
